Experimental data from patent US11147295B2, “Sweetener and flavor compositions, methods of making and methods of use thereof” (EPC Natural Products Co., Ltd., priority 2018, dated 2021).

What was measured:
[1] = the sweeteness depends on the tested concentration compared with sucrose; cited from earlier work
[2] = Sensory evaluation of the samples prepared in Example 50 (Example 52); type: in vivo, human; set-up: key to Intensity of Smell: “+” for slight; “++” for moderate; “+++” for very strong
Procedure: The reaction partner (amino acid, carbohydrate source) were dissolved/suspended in the reaction solvent and transferred into a glass beaker filled with sand pre-heated for at least 30 minutes at the reaction temperature in a drying oven. After the planned reaction time, the vials were transferred into ice water. After cooling to room temperature, sensory analysis and analytical characterization was performed.
For evaluation of the taste profile, the samples were tested by a panel of four people. 1 trained taster tasted independently the samples first. The taster was asked to describe the taste profile and score 0-5 according to the increasing sugar likeness, bitterness, aftertaste and lingering taste profiles. The first taster was allowed to re-taste, and then make notes for the sensory attributes perceived. Afterwards, another 3 tasters tasted and the attributes were noted and discussed openly to find a suitable description. In case that more than 1 taster disagreed with the results, the tasting was repeated. In some sensory test results (above), the taste rating was expressed by “+”, which means the intensity of the factors is shown by three levels. “+” for slight, “++” for moderate and “+++” for very strong.

[3] = Sensory analysis of Maillard reaction samples: odor/smell, color, taste (Examples 55-62); type: in vivo, human; conditions: Example 56, negative controls (no carbohydrate source); 10 ml glycerin/water=9:1, 100° C., 40 minutes
Procedure: All reactions were performed in 10 ml glycerin/water=9:1. The reaction partners were dissolved in water and then warmed glycerin (60° C.) was added. The reactions were performed at 100° C. for 40 minutes in a drying oven (sealed vials were positioned in pre-heated sand to increase heat transfer).
All samples were assessed at 22° C. after the Maillard reaction was stopped by placing the sealed vials in an ice bath. After 20 minutes in the ice bath the sealed vials were put in a water bath set to 22° C.
The odor/smell was assessed independently by 3 persons; the final description was agreed after discussion. […] The taste was assessed independently by 3 persons either in the original samples or after appropriate dilution to achieve relevant concentrations of sugars and steviol-glycosides (i.e. 5-9% SE); the final description was agreed after discussion.

[4] = as above; type: in vivo, human
[5] = DPPH radical-scavenging activity (Example 65); type: physicochemical; conditions: iron-III reduction and DPPH radical scavenging, samples kept at 100° C. 0, 2.5 or 5.0 hours
Procedure: 1 mg 1,1-Diphenyl-2-picrylhydrazyl radical (DPPH)/ml ethanol, dilution to assay concentration were prepared in ethanol (40 μg/mL); Calibration samples were prepared with Ascorbic acid in a concentration of 0-10 μg/mL; as a negative control sample, water was used.
Samples in aqueous solution were used as such or diluted with water.
A 0.1 ml sample (or calibration standard) was mixed with 3.9 ml solution of DPPH (100 μMolar) and reacted while protected from light at room temperature for 30 min. Absorbance was determined at 517 nm against ethanol.
10 mM of amino acid and/or 10 mM sugar were dissolved in 10 ml 0.1 mM KH2PO4-buffer, pH=7.8.
The samples were kept at 100° C. in sealed glass vials (Pyrex 15 ml with screw caps) for 0 (before reaction), 2.5 or 5.0 hours. Thereafter the samples were transferred to an ice water bath and cooled down to room temperature. These samples were diluted 1:10 and used for the test assay for anti-oxidant potential.

[6] = Table 52.6, Glycerin, 10 ml, 100° C., 40 min (Table 50.6)
[7] = Table 52.7, Glycerin, 10 ml, 1 h, 120° C. (Table 50.7)
[8] = Table 52.3, 1 ml water + 9 ml Glycerin, 0.67 h, 100° C. (Table 50.3)
[9] = Example 57, before reaction, 10 ml KH2PO4, pH 7.8
[10] = Table 52.5, 1 ml water + 9 ml Glycerin, 2.0 h, 120° C. (Table 50.5)
[11] = Table 52.2, 1 ml water + 9 ml Glycerin, 0.67 h, 100° C. (Table 50.2)
[12] = Example 57, after reaction, 10 ml KH2PO4, pH 7.8, 2.5 h, 120° C.
[13] = Table 52.1, 1 ml water + 9 ml Glycerin, 1 h, 100° C. (Table 50.1)

In the case of Thaumatin, the “times sweeter than sucrose” value [1] is given as “about 2000 times”.
For `OC[C@H]1OC(O)[C@H](O)[C@@H](O)[C@@H]1O` (stereo partly shown) [10 mMol Glu], the Smell [2, 6] was “Slightly Caramel” and the Smell [2, 7] was “Slightly Caramel”.
For `NCCCC[C@H](N)C(=O)O` [0.1 mMol Lys], the Smell [2, 8] was “Popcorn” and the Taste [2, 8] was “Sweet”.
In the case of `N[C@@H](Cc1ccccc1)C(=O)O` [16.5 mg Phe], the Smell [3] is reported as “Bloomy, caramel”, the Taste [3] is reported as “Slightly sweet” and the Smell [4, 9] is reported as “neutral”. For the same compound, the Taste [4, 9] was “No taste”, the Smell ([4]; Example 58, before reaction, 10 ml KH2PO4, pH 7.8) was “Neutral” and the Taste ([4]; Example 58, before reaction, after dilution 1:20) was “No taste”.
In the case of `O=C[C@H](O)[C@H]1OC(=O)[C@@H](O)[C@H]1O` [0.1 mMol GlucLac], the “Intensity of Smell” value [2, 10] is reported as “+++”, the Smell [2, 10] is reported as “Burnt sugar” and the Taste [2, 10] is reported as “Bitter”.
For `OC[C@H]1OC(O)[C@H](O)[C@@H](O)[C@@H]1O` (stereo partly shown) [9 mg Glucose], the Smell [4, 9] was “neutral” and the Taste [4, 9] was “Sweet”.
For `O=C(O)[C@@H]1CCCN1` [11.5 mg Pro], the Taste [3] was “Slightly sweet”.
In the case of `O=S(=O)([O-])NC1CCCCC1.[Na+]` [sodium cyclamate], the “times sweeter than sucrose” value [1] is listed as “about 30 times”.
For `N[C@@H](Cc1ccccc1)C(=O)O` [0.1 mMol Phe], the Taste [2, 11] was “sweet”, the “Intensity of Smell” value [2, 10] was “+” and the Smell [2, 10] was “Caramel, burnt”. The Taste [2, 10] was “sweet”.
In the case of `NCCCC[C@H](N)C(=O)O` [14.7 mg Lys], the Smell [3] is reported as “Popcorn” and the Taste [3] is reported as “Slightly sweet”.
For `N[C@@H](CS)C(=O)O` [12.1 mg Cys], the Smell [3] was “Unpleasant (sulfur)” and the Taste [3] was “Slightly sweet”.
With `C=C1C[C@@]23CC[C@H]4[C@@](C)(CCC[C@@]4(C)C(=O)O[C@@H]4O[C@H](CO)[C@@H](O)[C@H](O)[C@H]4O)[C@@H]2CC[C@]1(O[C@@H]1O[C@H](CO)[C@@H](O)[C@H](O[C@@H]2O[C@H](CO)[C@@H](O)[C@H](O)[C@H]2O)[C@H]1O[C@@H]1O[C@H](CO)[C@@H](O)[C@H](O)[C@H]1O)C3` [Reb-A, Rebaudioside A] the anti-oxidant properties [5] was “substantial anti-oxidant properties”.
With `O=C[C@H](O)[C@@H](O)[C@H](O)[C@H](O)C(=O)O` [Glucuronic Acid] the Smell [4, 12] was “burnt bread” and the Taste [4, 12] was “Bitter”.
In the case of `OC[C@H]1O[C@H](O[C@]2(CCl)O[C@H](CCl)[C@@H](O)[C@@H]2O)[C@H](O)[C@@H](O)[C@H]1Cl` [sucralose], the “times sweeter than sucrose” value [1] is listed as “about 600 times”.
In the case of `C=C1C[C@@]23CC[C@H]4[C@@](C)(CCC[C@@]4(C)C(=O)O[C@@H]4O[C@H](CO)[C@@H](O)[C@H](O)[C@H]4O)[C@@H]2CC[C@]1(O[C@@H]1O[C@H](CO)[C@@H](O)[C@H](O[C@@H]2O[C@H](CO)[C@@H](O)[C@H](O)[C@H]2O)[C@H]1O[C@@H]1O[C@H](CO)[C@@H](O)[C@H](O)[C@H]1O)C3` [0.05 mMol Reb-A], the Smell [2, 11] is reported as “neutral/unpleasant” and the Taste [2, 11] is reported as “sweet”.
In the case of `N[C@@H](Cc1c[nH]c2ccccc12)C(=O)O` [20.42 mg Try], the Smell [3] is reported as “Unpleasant (fecal)” and the Taste [3] is reported as “Slightly sweet”.
For `N[C@@H](CO)C(=O)O` [10.5 mg Ser], the Smell [3] was “Lotus flower” and the Taste [3] was “Slightly sweet”.
In the case of `C[C@H](N)C(=O)O` [8.91 mg Ala], the Smell [3] is reported as “Neutral, slightly Agar” and the Taste [3] is reported as “Slightly sweet”.
For `N[C@@H](Cc1ccccc1)C(=O)O` [Phe 60 mMol], the Smell [2, 13] was “flowery/bloomy-caramel” and the Taste [2, 13] was “Sweet”.
In the case of `N[C@@H](Cc1ccc(O)cc1)C(=O)O` [18.1 mg Tyr], the Smell [3] is reported as “neutral” and the Taste [3] is reported as “Slightly sweet”.
For `N[C@@H](CCC(=O)O)C(=O)O` [167 mMol Glu], the Smell [2, 13] was “caramel” and the Taste [2, 13] was “Sweet”.
For `CSCC[C@H](N)C(=O)O` [14.9 mg Met], the Smell [3] was “Sulfuric” and the Taste [3] was “Slightly sweet”.
For `CC[C@H](C)[C@H](N)C(=O)O` [13.11 mg Ile], the Smell [3] was “Coffee” and the Taste [3] was “Slightly sweet”.
For `N[C@@H](Cc1ccccc1)C(=O)O` [3.3 mMol Phe], the Smell ([2]; Table 52.6, Glycerin, 10 ml, 100° C., 5 min (Table 50.6)) was “Slightly bloomy”, the Smell ([2]; Table 52.6, Glycerin, 10 ml, 100° C., 10 min (Table 50.6)) was “flowery/bloomy” and the Smell ([2]; Table 52.6, Glycerin, 10 ml, 100° C., 20 min (Table 50.6)) was “flowery/bloomy”. The Smell [2, 6] was “flowery/bloomy” and the Smell [2, 7] was “flowery/bloomy”.
With `N[C@H](Cc1ccccc1)C(=O)O` [Phe] the Smell [4, 12] was “Caramel, burnt” and the Taste [4, 12] was “sweet”.
With `C[C@@H](O)[C@H](N)C(=O)O` [11.91 mg Thr] the Smell [3] was “Vanilla, butter” and the Taste [3] was “Slightly sweet”.
In the case of `C[C@H](N)C(=O)O` [0.1 mMol Ala], the Smell [2, 11] is reported as “Agar” and the Taste [2, 11] is reported as “sweet”.
In the case of `O=C1O[C@@H]2[C@@H](O)[C@H](O)O[C@@H]2C1O` (stereo partly shown) [Glucuronolactone], the Smell [4, 12] is reported as “Burnt sugar” and the Taste [4, 12] is reported as “Bitter”.
